In brackets after ≈: the same amount, converted by molar mass. Several values for one entry are separate records, joined by “and”; a condition that tells them apart may be missing. Equal entries are not always repeated. Where two headings read alike, the source gives them in different places.
Columns and labels:
[1] = tested on: W12I 20861 cervical precancer cells; test: Growth inhibition MTT assay on W12 clone 20861 (type 2 integrant); format: cell-based; details: 120 h, read-out: IC50, growth inhibitory activity on W12 clone 20861
[2] = tested on: W12I 20862 cervical precancer cells; test: Growth inhibition MTT assay on W12 clone 20862 (type 2 integrant); format: cell-based
[3] = tested on: W12I 20822 cervical precancer cells; test: Growth inhibition MTT assay on W12 clone 20822 (type 1 integrant); format: cell-based
[4] = tested on: W12E 20850 cervical precancer cells; test: Growth inhibition MTT assay on W12 clone 20850 (episomal HPV16); format: cell-based; details: for IC50: 120 h, read-out: IC50, growth inhibitory activity on W12 clone 20850
[5] = tested on: HeLa human cervical cancer cells; test: Growth inhibition (proliferation) MTT assay on HeLa cells; format: cell-based; details: for IC50: Homo sapiens
HT29 colon cancer cells = test: Growth inhibition (proliferation) MTT assay on HT29 cells; format: cell-based; details: Homo sapiens
[6] = tested on: cell cycle genes in HeLa cells; test: Gene expression analysis of HeLa cells treated with curcumin; format: cell-based, human; details: curcumin 32 µM, 8 h
Na^+/K^+-ATPase = target: Na^+/K^+-ATPase; parameters: method as in earlier work; details: read-out: IC50, inhibition of the activity of the Na+/K+-ATPase, cited from earlier work
[7] = tested on: J2 3T3 mouse embryo fibroblasts (feeder cells); test: Growth inhibition MTT assay on 3T3 feeder cells; format: cell-based; details: NIH3T3, read-out: IC50, growth inhibitory activity on 3T3 feeder cells
[8] = tested on: HeLa human cervical cancer cells; test: Combination growth inhibition assay and Combination Index on HeLa cells; format: cell-based
[9] = 120 h, read-out: IC50, growth inhibitory activity on W12 clone 20862
[10] = 120 h, read-out: IC50, growth inhibitory activity on W12 clone 20822
[11] = MTT, 96 h (Figure 1 legend; table footnote prints 120 h), read-out: IC50, growth inhibitory activity on HeLa cells
[12] = HT-29, HT29, MTT, 96 h (Figure 1 legend; table footnote prints 120 h), read-out: IC50, growth inhibitory activity on HT29 cells

COC1=CC(=O)O[C@@H](CCc2ccc3c(c2)OCO3)C1 [DHM, dihydromethysticin]
IC50 [1]: 12.4 µg/mL (≈ 44.9 µM) | IC50 [2, 9]: 12.8 µg/mL | IC50 [3, 10]: 10.2 µg/mL | IC50 [4]: 24.7 µg/mL (≈ 89.4 µM)

CC(=O)O[C@@H]1C[C@@]23C[C@@]24CC[C@H](O[C@@H]2OC[C@@H](O)[C@H](O)[C@H]2O)C(C)(C)[C@@H]4CC[C@H]3[C@]2(C)C[C@@H]3O[C@]4(C[C@@H](C)[C@@H]3[C@@]12C)O[C@H](O)[C@@]1(C)O[C@@H]41 [actein]
IC50 [1]: 37.9 µg/mL (≈ 56 µM) | IC50 [2, 9]: 36.3 µg/mL | IC50 [3, 10]: 55.7 µg/mL | IC50 [4]: 41.7 µg/mL (≈ 61.6 µM)

CC(C)c1cc2c(c(O)c1O)[C@@]1(C(=O)O)CCCC(C)(C)[C@@H]1CC2 [carnosic acid]
IC50 [5, 11]: 2.03 µg/mL (≈ 6.11 µM) | IC50 (HT29 colon cancer cells; [12]): 2.13 µg/mL (≈ 6.41 µM) | IC50 [1]: 14.1 µg/mL (≈ 42.4 µM) | IC50 [2, 9]: 10 µg/mL | IC50 [3, 10]: 10.7 µg/mL | IC50 [4]: 13 µg/mL (≈ 39.1 µM)

COc1cc(/C=C/C(=O)CC(=O)/C=C/c2ccc(O)c(OC)c2)ccc1O [curcumin]
Ratio, ATM (NM_000051) [6]: 15.43 | Ratio, CDC6 (NM_001254) [6]: 2.68 | Ratio, CDC20 (NM_016263) [6]: 19.4 | Ratio, CDKN1B (NM_004064) [6]: 2.77 | Ratio, E2F4 (NM_001950) [6]: 2.37 | Ratio, E2F5 (NM_001951) [6]: 2.94 | Ratio, GSK3B (NM_002093) [6]: 2.09 | Ratio, ORC1L (NM_004153) [6]: 3.10 | Ratio, PLK1 (NM_005030) [6]: 2.01 | Ratio, SKP2 (NM_005983) [6]: 5.03 | Ratio, SMAD4 (NM_005359) [6]: 3.49 | Ratio, SMC3 (NM_005445) [6]: −3.89 | Ratio, STAG1 (NM_005862) [6]: 2.37 | Ratio, STAG2 (NM_001042749) [6]: −3.56 | Ratio, ZBTB17 (NM_003443) [6]: 2.48 | Ratio, ATM (NM_138292) ([6]; text prints fold): 36 and 35.94 | IC50 (Na^+/K^+-ATPase; as previously described): 2000 nM

C[C@H]1O[C@@H](O[C@H]2[C@@H](O)C[C@H](O[C@H]3[C@@H](O)C[C@H](O[C@H]4CC[C@@]5(C)[C@H](CC[C@@H]6[C@@H]5CC[C@]5(C)[C@@H](C7=CC(=O)OC7)CC[C@]65O)C4)O[C@@H]3C)O[C@@H]2C)C[C@H](O)[C@@H]1O [digitoxin, reference compound]
IC50 ([5]; 96 h, read-out: Growth inhibitory Activity (ug/mL), HeLa Cells): 0.12 µg/mL (≈ 0.157 µM) | IC50 (HT29 colon cancer cells; HT-29, 96 h, read-out: Growth inhibitory Activity (ug/mL), HT29 Cells): 0.13 µg/mL (≈ 0.17 µM) | IC50 (Na^+/K^+-ATPase; comparator, unit inferred): < 100 nM

C[C@H]1O[C@@H](O[C@H]2[C@@H](O)C[C@H](O[C@H]3[C@@H](O)C[C@H](O[C@H]4CC[C@@]5(C)[C@H](CC[C@@H]6[C@@H]5C[C@@H](O)[C@]5(C)[C@@H](C7=CC(=O)OC7)CC[C@]65O)C4)O[C@@H]3C)O[C@@H]2C)C[C@H](O)[C@@H]1O [digoxin, reference compound]
IC50 ([5]; read-out: IC50, growth inhibitory activity on HeLa cells): 0.12 µg/mL (≈ 0.154 µM) | IC50 [7]: > 10 µg/mL | IC50 (HT29 colon cancer cells; HT-29, read-out: IC50, growth inhibitory activity on HT29 cells): 0.13 µg/mL (≈ 0.166 µM) | IC50 [1]: 0.0037 µg/mL (≈ 0.00474 µM) | IC50 [2, 9]: 0.0245 µg/mL | IC50 [3, 10]: 0.008 µg/mL | IC50 [4]: > 0.025 µg/mL

C(=Cc1ccccc1)c1ccccc1 [stilbene]
IC50, growth inhibitory activity on HeLa cells ([5]; MTT, 96 h (Figure 1 legend; table footnote prints 120 h)): greater than 100 µg/mL

Cc1coc2c1C(=O)C(=O)c1c-2ccc2c1CCCC2(C)C [tanshinone IIA]
IC50 ([5]; Figure 1C, 96 h, MTT, read-out: Growth inhibitory Activity (ug/mL), HeLa Cells): 1.4 µg/mL (≈ 4.76 µM) | IC50 [5, 11]: 1.33 µg/mL (≈ 4.52 µM) | percentage of viable cells ([8]; tanshinone IIA 0.2 μM alone, 90% curcuminoids experiment): 134% | percent viable cells ([8]; tanshinone IIA 0.2 µΜ alone, 95% curcuminoids experiment): 91.96% | IC50 (HT29 colon cancer cells; HT-29, Figure 1C, 96 h, MTT, read-out: Growth inhibitory Activity (ug/mL), HT29 Cells): 1.3 µg/mL (≈ 4.42 µM) | IC50 (HT29 colon cancer cells; [12]): 1.27 µg/mL (≈ 4.31 µM) | IC50 [1]: 1.4 µg/mL (≈ 4.76 µM) | IC50 ([2]; type 2 integrant, 120 h, MTT, read-out: IC50, growth inhibitory activity on W12 clone 20862): 3.1 µg/mL | IC50 ([2]; value quoted with the RT-PCR results, read-out: IC50, relative growth inhibitory effect on 20862): 2800 nM | IC50 ([3]; type 1 integrant, 120 h, MTT, read-out: IC50, growth inhibitory activity on W12 clone 20822): 2 µg/mL | IC50 ([3]; value quoted with the RT-PCR results, read-out: IC50, relative growth inhibitory effect on 20822): 2100 nM | IC50 ([4]; episomal, MTT): 2.3 µg/mL (≈ 7.81 µM) | low concentration with significant activity on 20850 (episomal) cells ([4]; p = 0.0058): 2.5 µM

lambda carrageenan
activity on 20850 cells, in words ([4]; after sonication, inverse pattern in a repeat experiment): highly active

Reference: paper PMC11768664 (Viruses, 2024)
